The record followed here is patent publication US20090005442A1, “CARBAMATE COMPOUNDS FOR USE IN PREVENTING OR TREATING NEURODEGENERATIVE DISORDERS” (priority 2001, published 2009).

This assay deals with PC12 cells. Put plainly: PC12 cell serum withdrawal model (MTS cell survival assay). The class given is cell-based. The conditions noted are these: control cells = 100%; for 7 Day Survival Rate (%): 10 μM applied at serum withdrawal and every 48 hr, MTS assay at 7 days; for 2 Day Survival Rate (%): 10 μM applied once at serum withdrawal, MTS assay at 2 days. The text has this: Serum withdrawal is a cytotoxic environmental challenge that results in cell death in cultured cell lines as well as in primary cells of various tissue origins, including nerve cells. In particular, pheochromocytoma (PC) 12 cells have been widely employed as an in vitro neuronal cell model for a wide variety of neurodegenerative and cell death related disorders (Muriel, et al, Mitochondrial free calcium levels (Rhod-2 fluorescence) and ultrastructural alterations in neuronally differentiated PC12 cells during ceramide-dependent cell death, J. Comp. Neurol., 2000, 426(2), 297-315; Dermitzaki, et al, Opioids transiently prevent activation of apoptotic mechanisms following short periods of serum withdrawal, J. Neurochem., 2000, 74(3), 960-969; Carlile, et al, Reduced apoptosis after nerve growth factor and serum withdrawal: conversion of tetrameric glyceraldehyde-3-phosphate dehydrogenase to a dimer, Mol. Pharmacol., 2000, 57(1), 2-12).
PC12 cells were cultured in sterile media (RPMI 1640) supplemented with 10% heat-inactivated horse serum and 5% fetal bovine serum (FBS). The culture medium also contained 1× Penicillin-Streptomycin-Neomycin antibiotic (50 μg, 50 μg, 100 μg, respectively). Medium was exchanged every other day and the cells were passed in log phase near confluence.
The control cells were cultured in regular media without any treatment. An enantiomer of Formula (Ib) or […] (10 μM) was mixed well in the medium and then applied to the cells. For the 2 day assay, an enantiomer of Formula (Ib) or […] (10 μM) was only applied to the cells once at the time of serum withdrawal. For the 7 day assay, an enantiomer of Formula (Ib) or Formula (IIb) (10 μM) was applied to the cells at the time of serum withdrawal and every 48 hr thereafter when cells were changed with fresh new serum-free medium. In the serum withdrawal group, the cells were cultured in serum-free medium with no additional enantiomer of Formula (Ib) or Formula (IIb). Cell survival was determined by the 3-(4,5-dimethylthiazol-2-yl)-5-(3-carboxy-methoxyphenyl)-2-(4-sulfophenyl)-2H-tetrazolium inner salt (MTS) assay at 2 or 7 days after serum withdrawal.
At the end of the experiment, cells were washed with fresh medium and incubated with MTS solution in a humidified 37° C. with 5% CO2 incubator for 1.5 hr. After the incubation period, the cells were immediately analyzed using a Softmax program (Molecular Devices). […] The assay is based on the cellular conversion of the tetrazolium salt, MTS, into a formazan that is soluble in tissue culture medium and measured directly at 490 nm in 96-well assay plates. The absorbance is directly proportional to the number of living cells in culture. The arbitrary absorbance reading in control cells is expressed as 100% survival rate.
(Tetrazolium dyes change colour on reduction, which living cells bring about.)

With `NC(=O)OC[C@H](OC(N)=O)c1ccccc1Cl` [Formula (IIb)], the “7 Day Survival Rate (%)” value is recorded as 85.2 ± 0.6^2% and the “2 Day Survival Rate (%)” value was 66.4 ± 5.4^1%.

With `NC(=O)OC[C@@H](O)c1ccccc1Cl` [Formula (Ib)], the “7 Day Survival Rate (%)” value is recorded as 79.9 ± 4.0^2% and the “2 Day Survival Rate (%)” value is given as 69.4 ± 1.7^1%.
